Reference: patent publication US11733246B2, “Compositions, imaging, and therapeutic methods targeting folate receptor 1 (FOLR1)” (Indi Molecular, Inc., priority 2020, dated 2023)
Where two headings read alike, the source gives them in different places. Numbered stars: 1 amine (or outer) side, 2 acyl side, 3 side chain; on linkers, the order of the positions; unused ones are H or OH. Bridge positions count the residues as written; N and C are the ends. Square brackets hold non-standard residues; d marks the D form. Triazole bridges read from a SMILES are 1,4-linked. Peptide text beside a SMILES is read from it. * marks the point of attachment. DOTA = O=C(O)CN1CCN(CC(=O)O)CCN(CC(=O)*)CCN(CC(=O)O)CC1; Pteroyl = Nc1nc2ncc(CNc3ccc(C(=O)*)cc3)nc2c(=O)[nH]1; Biotin = O=C1N[C@H]2[C@H](CS[C@H]2CCCCC(=O)*)N1; Butanoyl(4-(4-I-phenyl)) = O=C(CCCc1ccc(I)cc1)*; PEG10 = NCCOCCOCCOCCOCCOCCOCCOCCOCCOCCOCCC(=O)O; Lys(N3) = [N-]=[N+]=NCCCC[C@H](N)C(=O)O; γGlu = O=C(O)[C@H](CCC(=O)[*:2])N[*:1]; AEEEA = NCCOCCOCCOCC(=O)O; Pra = C#CC[C@H](N)C(=O)O

Experiments:
FOLR1 [1] = target: T1, FOLR1 (Homo sapiens, UniProt P15328); assay: ELISA assay of FOLR1 binding
T1 construct: His; purchased SinoBiological 11241-H08H
Source text: FIG. 5 is a diagram of ELISA assay of FOLR1 binding of heterobiligands.
Nonclinical studies were first conducted with Folate-hshta-PEG10-PEG10-K(Biotin), where Folate-hshta is the targeting heterobiligand, PEG10 is a deca(ethylene glycol) linker, and K(Biotin) is the detection label.

FOLR1 [2] = target: T1, FOLR1; assay: Competition ELISA with folic acid; assay type: binding
Protocol: A competition experiment was conducted to further understand the binding kinetics of the lead heterobiligand (folate-hshta (SEQ ID NO:6) Nterm heterobiligand).
(§1) Nonclinical studies were first conducted with Folate-hshta-PEG10-PEG10-K(Biotin), where Folate-hshta is the targeting heterobiligand, PEG10 is a deca(ethylene glycol) linker, and K(Biotin) is the detection label. […] Cross reactivity with the murine folate receptor was also observed. […] In the merged image, purple puncta were observed indicating co-localization of internalized heterobiligand with early endosomes (Rab5a+ vesicles) in OVCAR3 cells.

OVCAR3 FOLR1+ cells = assay: Flow cytometry binding to FOLR1 (+) cells; assay type: cell-based, human
Protocol: (§2) Both the kyeet (SEQ ID NO:9) and hshta (SEQ ID NO:6)-derived biligands were tested by flow cytometry for binding to FOLR1 (+) and FOLR1 (−) cell lines (FIGS. 6 and 7). The human ovarian adenocarcinoma-derived cell line OVCAR3 has robust FOLR1 expression and was selected as the FOLR1 (+) cell line. The human prostate adenocarcinoma-derived cell line PC-3 was selected as a FOLR1 (−) cell line.
Competition at the cellular level was also probed.
Increasing the serum-bound fraction of the peptide may decrease first pass removal of the heterobiligand, and drive compound retention of tumor over kidney. Constructs bearing the known albumin binder 4-methylphenyl butyric acid (4-MPBA) were synthesized. These compounds were evaluated in vitro to verify binding fidelity to FOLR1. The modified heterobiligands were incubated at 400 nM with OVCAR3 and PC-3 cells for 20 minutes at 37° C. in complete media containing 20% FBS. They both bind to OVCAR3 FOLR1+ cells with similar binding affinities as the original heterobiligand studied (FIG. 14). […] Similar activity of these heterobiligands is anticipated in vivo.

PC3 FOLR1− cells = assay: Flow cytometry binding to FOLR1 (−) cells; assay type: cell-based, human
Protocol: as §2

OVCAR3 cells = assay: Cell internalization assay (acid wash, flow cytometry); assay type: cell-based, human
Protocol: FIG. 10 is a diagram of an assay for assessing cell internalization FOLR1 heterobiligands.
The folate-hshta (SEQ ID NO:6) Nterm heterobiligand was also evaluated in cell penetration imaging assays (FIG. 10). OVCAR3 and PC-3 cells were incubated with the test article at 37° C. for 1 hour. Flow cytometry analysis of the resulting treated cells indicated strong binding to FOLR1 (+) cells. To understand the proportion bound to the surface but not internalized, the cells were briefly washed with acid to liberate the non-internalized peptide.
as §1

[3] = Plasma protein binding (equilibrium dialysis), human; assay type: in vitro ADME
Protocol: (§3) HTD 96 a/b regenerated cellulose membrane strips with mass cutoff of 12-14 kDa were soaked in ultra-pure water at room temperature for 1 hour. Each swelled membrane was then soaked in 20:80 ethanol:water for 20 minutes.
(§4) Just prior to the experiment, the membranes were re-soaked in ultra-pure water. Plasma was prepared by thawing under cold water. The plasma was centrifuged to remove any clots and pH was adjusted to 7.0-8.0. Test articles and control compounds were diluted to 2 μM. The dialysis device was loaded by transferring 150 μL of the test article (in triplicate) to the donor side. The dialysis device was placed in a humidified incubator at 37° C. with 5% CO2 in a shaking platform that rotated slowly for 4 hours. After incubation, 50 μL of the supernatant was taken from both sides and analyzed by LC-MS/MS.
(§5) To optimize the albumin binding potential of the heterobiligand, a plasma protein binding (PPB) experiment was performed. This experiment measured the amount of test article bound and free after equilibrating with plasma. Compound #6305 (folate-hshta-Lys(MPBA)-Gly-Phe-Lys(DOTA) (SEQ ID NO:6)), which contains the MPBA albumin binder, was 96.26% bound to mouse plasma and 98.34% bound to human plasma. […] In mouse and human plasmas 99.6% and 99.5% was bound, respectively.

human plasma proteins = assay: as above; assay type: in vitro ADME; settings: human, plasma
Protocol: as §3, §4, §5

[4] = Plasma protein binding (equilibrium dialysis), mouse; assay type: in vitro ADME, CD-1 mouse
Protocol: as §3, §4, §5

mouse plasma proteins = assay: as above; assay type: in vitro ADME, CD-1 mouse; settings: mouse, plasma
Protocol: as §3, §4, §5

human recombinant NEP = human recombinant NEP (Homo sapiens, UniProt P08473); assay type: biochemical
Protocol: In order to test the susceptibility of GFK and MVK linkers to NEP-mediated cleavage, the peptide (Folate-hshta-Lys(MPBA)-Gly-Phe-Lys(DOTA) (SEQ ID NO:6)) was incubated with human recombinant NEP and analyzed the solution for the presence of cleaved adducts. MALDI was utilized to monitor the cleavage of a PCC heterobiligand that contains a NEP protease recognizable sequence (G-F-K). The PCC concentration was constant and the NEP concentration was titrated down from 10 nM to 1 nM, 0.1 nM, 0.01 nM, and no NEP. The NEP-mediated cleaved adduct was identified by mass. 10 μM PCC containing the GFK linker was combined with varying amounts of NEP. […] Below 0.1 nM no cleavage was observed. • Folate-hshta-Lys(MPBA)-Gly-Phe-Lys(DOTA) (SEQ ID NO:6) • Molecular weight 2231.42
The NEP-mediated cleavage was also monitored by HPLC. In agreement with the MALDI spectra, the HPLC chromatograms show depletion of the parent brush-border heterobiligand (retention time 17.1 minutes), dose-dependent on the amount of NEP spiked into the sample (10 nM, 1 nM, 0.1 nM, 0.01 nM, and no NEP). An appearance of a new peak (retention time 16.5 minutes) in concert with the depletion of the starting material is presumed to be the cleaved folate-containing peptide.
In order to test the specificity of NEP, a non-cleavable linker (PEG3) was also assayed.
To reduce the radioactive dose to the kidney, Indi ^177Lu-7327 was constructed to incorporate a GFK linker that is susceptible to cleavage by enzymes found predominately in the kidney's brush border. These enzymes cleave off the radionuclide-chelator complex, which is quickly eliminated by the kidney for excretion in the urine. The zinc metalloprotease neprilysin (NEP) is expressed with high abundance in the kidney. […] To confirm NEP-mediated cleavage of the GFK linker in Indi 7327, the peptide was incubated with recombinant human NEP at 37° C. for 1 h and analyzed by matrix-assisted laser desorption/ionization mass spectrometry (MALDI-MS) for the evolution of cleaved adducts (FIG. 42). […] The expected cleaved adduct (mass: 1283.16 m/z) appears in the samples containing 10, 1.0, and 0.1 nM NEP. […] Below 0.1 nM NEP, no cleavage was observed. In addition to confirming the selectivity of NEP for the GFK linker, it is also important to note that the remaining portions of the Indi 7327 were impervious to the enzyme.

in vitro [5] = settings: human, plasma, pH 7.4, Plasma Stability (t 1/2)
Protocol: (§6) Plasma was thawed in a 37° C. water bath. Residual clots were removed via centrifugation at 4000 rpm for 5 minutes. The pH of the plasma was adjusted to 7.4 if required. Test articles were diluted to 100 μM by diluting a 1 mM working solution (in DMSO) with 45% methanol in water. To 98 μL of plasma was added 2 μL of the 100 μM solution, resulting in 2 μM final concentration of the test article. Samples were incubated at 37° C. in a water bath. At the indicated time points (0, 10, 30, 60, 120 minutes) 100 μL of 4% H3PO4 was added followed by 800 μL of stop solution (200 ng/mL tolbutamide and 200 ng/mL labetalol in 100% acetonitrile). The samples were centrifuged and the plasma protein-free supernatant (100 μL) was subjected to LC-MS/MS analysis.

in vitro [6] = settings: CD-1, mouse, plasma, pH 7.4, Plasma Stability (t 1/2)
Protocol: as §6

[7] = target: mouse recombinant FOLR1 (rMuFOLR1) (Mus musculus, UniProt P35846); assay: ELISA binding to mouse recombinant FOLR1
Source text: Further evaluation of the folate-hshta (SEQ ID NO:6) Nterm heterobiligand depended on cross reactivity with mouse recombinant FOLR1 (rMuFOLR1). The heterobiligand binds to both species' variants of FOLR1 with high affinity. This observation was expected given the high homology between the two variants (approximately 92%).

T1 sequence (P15328 25-234): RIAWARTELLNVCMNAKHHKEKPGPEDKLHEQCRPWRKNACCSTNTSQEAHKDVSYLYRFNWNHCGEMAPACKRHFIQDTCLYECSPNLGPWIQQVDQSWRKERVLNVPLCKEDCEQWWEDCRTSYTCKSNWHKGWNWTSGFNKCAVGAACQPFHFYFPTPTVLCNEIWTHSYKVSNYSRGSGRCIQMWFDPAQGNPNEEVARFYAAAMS
human recombinant NEP, sequence (P08473 whole entry): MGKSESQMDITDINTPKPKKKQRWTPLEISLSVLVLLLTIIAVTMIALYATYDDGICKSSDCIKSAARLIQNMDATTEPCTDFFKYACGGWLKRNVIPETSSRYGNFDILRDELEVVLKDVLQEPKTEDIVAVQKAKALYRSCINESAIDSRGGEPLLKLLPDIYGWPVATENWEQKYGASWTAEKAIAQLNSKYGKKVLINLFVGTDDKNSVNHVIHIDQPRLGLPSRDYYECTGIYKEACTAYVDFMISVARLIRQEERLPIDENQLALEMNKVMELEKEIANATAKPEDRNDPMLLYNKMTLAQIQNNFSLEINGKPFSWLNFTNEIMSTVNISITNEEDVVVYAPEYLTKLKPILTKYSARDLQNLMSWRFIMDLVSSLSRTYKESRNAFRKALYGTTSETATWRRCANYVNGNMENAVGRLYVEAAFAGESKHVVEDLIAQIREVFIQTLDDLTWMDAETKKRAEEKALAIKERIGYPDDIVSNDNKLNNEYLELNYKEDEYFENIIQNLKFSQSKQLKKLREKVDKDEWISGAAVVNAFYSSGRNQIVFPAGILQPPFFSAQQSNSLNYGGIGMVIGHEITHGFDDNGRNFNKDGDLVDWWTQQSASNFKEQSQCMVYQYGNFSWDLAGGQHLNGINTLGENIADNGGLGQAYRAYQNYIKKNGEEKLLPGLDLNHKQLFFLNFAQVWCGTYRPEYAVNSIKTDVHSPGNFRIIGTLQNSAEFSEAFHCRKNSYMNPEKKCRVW
mouse recombinant FOLR1 (rMuFOLR1), sequence (P35846 25-232): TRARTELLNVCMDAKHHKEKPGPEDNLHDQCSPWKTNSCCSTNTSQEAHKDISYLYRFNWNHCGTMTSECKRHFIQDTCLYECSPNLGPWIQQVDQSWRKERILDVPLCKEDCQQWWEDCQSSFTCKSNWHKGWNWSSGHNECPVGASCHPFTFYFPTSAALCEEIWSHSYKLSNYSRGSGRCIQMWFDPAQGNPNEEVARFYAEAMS

SMILES: C[C@H](O)[C@H]1NC(=O)[C@@H](Cc2c[nH]cn2)NC(=O)[C@@H](CO)NC(=O)[C@@H](Cc2c[nH]cn2)NC(=O)[C@@H](NC(=O)CC[C@H](NC(=O)c2ccc(NCc3cnc4nc(N)[nH]c(=O)c4n3)cc2)C(=O)O)Cc2cn(nn2)CCCC[C@@H](C(=O)NCCOCCOCCOCCOCCOCCOCCOCCOCCOCCOCCC(=O)NCCOCCOCCOCCOCCOCCOCCOCCOCCOCCOCCC(=O)N[C@@H](CCCCNC(=O)CCCC[C@@H]2SC[C@@H]3NC(=O)N[C@@H]32)C(N)=O)NC(=O)[C@@H](C)NC1=O [Folate-hshta Nterm, Folate-hshta-PEG10-PEG10-K(Biotin)] ({Pteroyl-γGlu}-[Pra][dH][dS][dH][dT][dA][Lys(N3)][PEG10][PEG10]K(Biotin)-NH2; triazole 1-7)
- affinity relative to folate itself (FOLR1 [1]; ELISA): ~30 fold
- displacement by exogenous folate in competitive ELISA (FOLR1 [2]): resilient to displacement by exogenous folate
- binding affinity of the heterobiligand in presence of folic acid (FOLR1 [2]; folic acid from 0 to 500 nM): virtually unchanged
- competition by folic acid (FOLR1 [2]; folic acid greater than 500 nM): partially compete away
- percentage of OVCAR3 cells binding (OVCAR3 FOLR1+ cells; 0.1 μg/mL folate): 57%
- selectivity for FOLR1 (+) cells over FOLR1 (−) cells (OVCAR3 FOLR1+ cells; OVCAR3 vs PC-3, flow cytometry): high selectivity for FOLR1 (+) cells
- binding against OVCAR3 FOLR1+ cells (OVCAR3 FOLR1+ cells; flow cytometry): Dose-dependent binding
- selectivity compared with commercially available FOLR1 antibody (OVCAR3 FOLR1+ cells; flow cytometry): superior to a commercially available FOLR1 antibody
- binding against OVCAR3 FOLR1+ cells (OVCAR3 FOLR1+ cells; flow cytometry, listed as lead heterobiligand): best binding
- displacement by exogenous folic acid at the cellular level (OVCAR3 FOLR1+ cells; increasing exogenous folic acid, flow cytometry): more resilient to folic acid displacement than biotinylated folic acid
- percentage of OVCAR3 cells binding (OVCAR3 FOLR1+ cells; no folate): 76.6%
- binding of PC3 FOLR1− cells (PC3 FOLR1− cells): low non-specific binding
- percentage of positively stained cells (OVCAR3 cells; OVCAR3, 37° C. 1 hour, before acid treatment): 73.4%
- percentage of positively stained cells (OVCAR3 cells; OVCAR3, following acid treatment): 54.2%

SMILES: C[C@H](O)[C@H]1NC(=O)[C@@H](Cc2c[nH]cn2)NC(=O)[C@@H](CO)NC(=O)[C@@H](Cc2c[nH]cn2)NC(=O)[C@@H](NC(=O)CC[C@H](NC(=O)c2ccc(NCc3cnc4nc(N)[nH]c(=O)c4n3)cc2)C(=O)O)Cc2cn(nn2)CCCC[C@@H](C(=O)N[C@@H](CCCCNC(=O)CCCc2ccc(I)cc2)C(=O)NCC(=O)N[C@@H](Cc2ccccc2)C(=O)N[C@@H](CCCCNC(=O)CN2CCN(CC(=O)O)CCN(CC(=O)O)CCN(CC(=O)O)CC2)C(=O)O)NC(=O)[C@@H](C)NC1=O [compound #1307, Fol-hshta-Lys(4-IPBA)-Gly-Phe-Lys(DOTA)] ({Pteroyl-γGlu}-[Pra][dH][dS][dH][dT][dA][Lys(N3)]K(Butanoyl(4-(4-I-phenyl)))GFK(DOTA)-OH; triazole 1-7)
- recovery [3]: 84.4%
- Plasma % Bound (human plasma proteins): Hu: 99.50%
- recovery [4]: 87.7%
- Plasma % Bound (mouse plasma proteins): Mu: 99.60%
- in vitro Assay Data (NEP assay) (human recombinant NEP): Cleavage of -G-F-K-

SMILES: C[C@H](O)[C@H]1NC(=O)[C@@H](Cc2cnc[nH]2)NC(=O)[C@@H](CO)NC(=O)[C@@H](Cc2cnc[nH]2)NC(=O)[C@@H](NC(=O)CC[C@H](NC(=O)c2ccc(NCc3cnc4nc(N)[nH]c(=O)c4n3)cc2)C(=O)O)Cc2cn(nn2)CCCC[C@@H](C(=O)NCC(=O)N[C@@H](Cc2ccccc2)C(=O)N[C@@H](CCCCNC(=O)CN2CCN(CC(=O)O)CCN(CC(=O)O)CCN(CC(=O)O)CC2)C(=O)O)NC(=O)[C@@H](C)NC1=O [compound #7327, Fol-hshta-Gly-Phe-Lys(DOTA)] ({Pteroyl-γGlu}-[Pra][dH][dS][dH][dT][dA][Lys(N3)]GFK(DOTA)-OH; triazole 1-7)
- recovery at 4 h, 2 μM ([3]; human): 113%
- fraction unbound at 4 h, 2 μM ([3]; human, plasma): 0.597
- recovery at 4 h, 2 μM ([4]; CD-1, mouse): 102%
- fraction unbound at 4 h, 2 μM ([4]; CD-1, mouse, plasma): 0.591
- in vitro Assay Data (NEP assay) (human recombinant NEP): Cleavage of -G-F-K-
- half-life at 2 μM (in vitro [5]): > 4.79 days
- half-life at 2 μM (in vitro [6]): > 4.79 days

SMILES: C[C@H](O)[C@H]1NC(=O)[C@@H](Cc2c[nH]cn2)NC(=O)[C@@H](CO)NC(=O)[C@@H](Cc2c[nH]cn2)NC(=O)[C@@H](NC(=O)COCCOCCOCCNC(=O)CCCC[C@@H]2SC[C@@H]3NC(=O)N[C@@H]32)Cc2cn(nn2)CCCC[C@@H](C(N)=O)NC(=O)[C@@H](C)NC1=O [hshta] ({Biotin-AEEEA}-[Pra][dH][dS][dH][dT][dA][Lys(N3)]-NH2; triazole 1-7)
- EC50 (FOLR1 [1]; Human FOLR1, read-out: Ec50): 3.4 µM
- EC50 (FOLR1 [1]; read-out: EC50 (ELISA, FOLR1)): 3.92 µM
- EC50 [7]: 2100 nM
